Source: paper PMC10545747, “Development of cyclopeptide inhibitors of cGAS targeting protein-DNA interaction and phase separation” (Nature Communications, 2023)
In brackets after ≈: the same amount, converted by molar mass. Several values for one entry are separate records, joined by “and”; a condition that tells them apart may be missing. Equal entries are not always repeated. Square brackets hold non-standard residues; d marks the D form. Peptide text beside a SMILES is read from it.

Legend:
[1] = test system: macrophage RAW264.7 cells; experiment: qPCR of Ifnb1/Cxcl10/Il6 mRNA in RAW264.7 cells (ISD or HSV-1); type: cell-based, mouse; parameters: key to Ifnb1 mRNA (Fig. S2c) / Cxcl10 mRNA (Fig. S2c) / Ifnb1 mRNA (Fig. S2d) / Cxcl10 mRNA (Fig. S2d) / Ifnb1 mRNA (Fig. S7g) / Cxcl10 mRNA (Fig. S7g) / Il6 mRNA (Fig. S7g): mRNA level normalized to GAPDH (relative expression)
Method: The indicated cells were stimulated with either ISD (Sangon Biotech), HSV-1 (Provided by Dr. Zhengfan Jiang), HSV60mer (Sangon Biotech), SATE-cddA[70], 2’3’-cGAMP (Invivogen, Cat# tlrl-nacga23-1), ADU-S100 (MedChemExpress, Cat# HY-12885A) or Poly(I:C) (Invivogen, Cat# tlrl-pic) after XQ2 or XQ2B treatment. Total RNA was isolated from indicated cells that incubated with the drugs for indicated time or mice tissues by using NucleoZOL reagent (MACHEREY-NAGEL) according to the manufacturer’s instructions. The quantifications of mRNA levels were carried out by real-time PCR using a PerfectStart® Uni RT&qPCR Kit (TransGen Biotech) on the QuantStudio 5 qPCR machine (Applied Biosystems). Samples were carried out in triplicate and the target CT values were normalized to GAPDH CT values. Primers of qPCR used in this study can be found in Supplementary Table S2. […]
(c) L929, p = 0.0005 (Ifnb1),
BMDMs, p = 0.0001 (Ifnb1), p < 0.0001 (Cxcl10).
representative of three independent experiments in (a-g). (Data are presented as mean ± SD, n = 3 independent
Source data are provided as a Source Data file.

primary human PBMCs = experiment: qPCR of IFNB1 and IL6 mRNA in ISD-stimulated PBMCs; type: cell-based; parameters: key to IFNB1 mRNA, qPCR, Fig. 2c / IL6 mRNA, qPCR, Fig. 2c / IFNB1 mRNA (Fig. S7f) / IL6 mRNA (Fig. S7f): relative mRNA level, target CT normalized to GAPDH CT
Method: (§1) The indicated cells were stimulated with either ISD (Sangon Biotech), HSV-1 (Provided by Dr. Zhengfan Jiang), HSV60mer (Sangon Biotech), SATE-cddA[70], 2’3’-cGAMP (Invivogen, Cat# tlrl-nacga23-1), ADU-S100 (MedChemExpress, Cat# HY-12885A) or Poly(I:C) (Invivogen, Cat# tlrl-pic) after XQ2 or XQ2B treatment. Total RNA was isolated from indicated cells that incubated with the drugs for indicated time or mice tissues by using NucleoZOL reagent (MACHEREY-NAGEL) according to the manufacturer’s instructions. The quantifications of mRNA levels were carried out by real-time PCR using a PerfectStart® Uni RT&qPCR Kit (TransGen Biotech) on the QuantStudio 5 qPCR machine (Applied Biosystems). Samples were carried out in triplicate and the target CT values were normalized to GAPDH CT values. Primers of qPCR used in this study can be found in Supplementary Table S2.

[2] = Solubility in water (spectrophotometer at 280nm, turbidity); settings: water
Method: Supplementary Fig. 7. […] (a) THP1 cells were exposed to the indicated doses of XQ2 or XQ2B for 48h. The cell viability was measured by CCK8 assay. (b) The comparison of solubility of XQ2 and XQ2B. The maximum concentration of XQ2 or XQ2B dissolved in water was measured by a spectrophotometer at 280nm. […]
Data are representative of three independent experiments with similar results in (e), or three independent experiments in (a -d, f, g) . (Data are presented as mean ± SD, n = 3 independent samples in (a-d, f, g), ns, not significant, **p < 0.01, ***p < 0.001, ****p < 0.0001 using one-way ANOV A with Dunnett’s post hoc test). Source data are provided as a Source Data file.

[3] = test system: dsDNA-stimulated THP1 cells; experiment: qPCR of IFNB1/CXCL10/IL6 mRNA in THP1 cells stimulated by dsDNA (ISD, HSV60mer); type: cell-based, human; settings: for IFNB1 mRNA level (Fig. S7c): XQ2B; for Relative mRNA level CXCL10 (Fig. S7d) / Relative mRNA level IFNB1 (Fig. S7d) / Relative mRNA level IL6 (Fig. S7d): ISD +
Source text: To screen direct cGAS inhibitors targeting protein-DNA interface from our developed focused library of macrocyclic peptides, we applied an RNA-based fluorescent biosensor for 2’,3’-cGAMP to detect cGAS activity in vitro (Supplementary Fig. 1a)[49]. The formation of 2’,3’-cGAMP from ATP and GTP was catalyzed by recombinant human cGAS enzyme (hcGAS-ΔN, residues 147–522, Supplementary Fig. 1b) in the presence of ISD (interferon stimulatory DNA, a 45-bp dsDNA), which was readily quantified by the RNA-based fluorescent biosensor and was further confirmed by ion exchange chromatography (Supplementary Fig. 1c). […] Subsequently, a total of 90 macrocyclic peptides were screened at a concentration of 20 μM (Fig. 1a and Supplementary Fig. 1e), and 4 hits (XQ2, XQ8, XQ19, and XQ46) were obtained for further testing at a cut-off of 40% inhibition (Supplementary Table 1). To evaluate the inhibitory effect of the hits against cGAS in cells, we employed real-time quantitative PCR (qPCR) to examine mRNA levels of IFNΒ1 in THP1 cells. The reported cGAS inhibitor RU.521 was used as the positive control, and the non-active peptide XQ28 in the screening assay was used as the negative control. […] The inhibition of cGAS by these hits was further confirmed in the reporter cell line THP1-Lucia ISG (Invivogen) that expresses secreted luciferase induced by an IRF3-inducible ISG54 promoter (Fig. 1c). The discrepancy between the inhibitory effect of the hits in protein and cellular assays may be attributed to their different cellular permeability.
as §1

Q: For `CC(C)C[C@@H]1NC(=O)[C@H](CCCNC(=N)N)NC(=O)[C@H](C(C)C)NC(=O)[C@@H]2CCCN2C(=O)[C@@H](Cc2ccccc2)NC(=O)[C@H](CC(C)C)NC(=O)[C@H](CCCNC(=N)N)NC(=O)[C@H]([C@@H](C)O)NC(=O)[C@H](C)NC(=O)[C@@H](Cc2ccccc2)NC1=O` [XQ2B] (cyclo([dF]ATRL[dF]PVRL)), which “Cxcl10 mRNA (Fig. S7g)” value ([1]; ISD+XQ2B) is on record?
A: 1166.92 and 1221.79 and 1328.72

Q: And the “Ifnb1 mRNA (Fig. S7g)” value ([1]; ISD+XQ2B)?
A: 1896.14 and 2591.99 and 2490

Q: What about the “Il6 mRNA (Fig. S7g)” value ([1]; ISD+XQ2B) of the same compound?
A: 1526.53 and 1838.42 and 1588.85

Q: What about the “Cxcl10 mRNA (Fig. S7g)” value ([1]; XQ2B alone) of the same compound?
A: 2.509 and 2.275 and 2.115

Q: And the “Ifnb1 mRNA (Fig. S7g)” value ([1]; XQ2B alone)?
A: 1.291 and 1.1996 and 1.38

Q: And the “ISD-induced IFNB1 and IL6 expression in PBMCs” value (primary human PBMCs; 10 μM)?
A: significantly inhibit the activation of cGAS induced by ISD

Q: And the “IFNB1 mRNA (Fig. S7f)” value (primary human PBMCs; PBMCs, ISD+XQ2B)?
A: 841.807 and 913.377 and 771.009

Q: And the “IL6 mRNA (Fig. S7f)” value (primary human PBMCs; PBMCs, ISD+XQ2B)?
A: 1185.13 and 642.626 and 1199.71

Q: What about the “Concentration (solubility, Fig. S7b)” value [2] of the same compound?
A: 2890 µg/mL and 2940 µg/mL

Q: What about the “solubility” value [2] of the same compound?
A: higher solubility compared to XQ2

Q: What about the solubility ([2]; Concentration (solubility, Fig. S7b)) of the same compound?
A: 2850 µg/mL (≈ 2370 µM)

Q: And the “IFNB1 mRNA level (Fig. S7c)” value ([3]; HSV60mer)?
A: 40.2098 and 37.8755 and 37.7329

Q: And the “Relative mRNA level CXCL10 (Fig. S7d)” value ([3]; XQ2B 0.63 μM)?
A: 75.7262 and 111.48 and 109.732

Q: What about the “Relative mRNA level IFNB1 (Fig. S7d)” value ([3]; XQ2B 0.63 μM) of the same compound?
A: 143.341 and 159.417 and 146.307

Q: What about the “Relative mRNA level IL6 (Fig. S7d)” value ([3]; XQ2B 0.63 μM) of the same compound?
A: 4.851 and 5.001 and 4.853

Q: And the “Relative mRNA level CXCL10 (Fig. S7d)” value ([3]; XQ2B 1.25 μM)?
A: 71.0232 and 80.5931 and 82.552

Q: And the “Relative mRNA level IFNB1 (Fig. S7d)” value ([3]; XQ2B 1.25 μM)?
A: 150.862 and 127.331 and 129.696

Q: What about the “Relative mRNA level IL6 (Fig. S7d)” value ([3]; XQ2B 1.25 μM) of the same compound?
A: 5.209 and 4.534 and 5.634

Q: What about the “Relative mRNA level CXCL10 (Fig. S7d)” value ([3]; XQ2B 2.5 μM) of the same compound?
A: 65.3896 and 90.4406 and 75.1347

Q: What about the “Relative mRNA level IFNB1 (Fig. S7d)” value ([3]; XQ2B 2.5 μM) of the same compound?
A: 125.32 and 106.736 and 118.852

Q: And the “Relative mRNA level IL6 (Fig. S7d)” value ([3]; XQ2B 2.5 μM)?
A: 3.096 and 3.258 and 2.284

Q: What about the “Relative mRNA level CXCL10 (Fig. S7d)” value ([3]; XQ2B 5 μM) of the same compound?
A: 49.8503 and 48.6212 and 43.7599

Q: What about the “Relative mRNA level IFNB1 (Fig. S7d)” value ([3]; XQ2B 5 μM) of the same compound?
A: 64.7201 and 61.5772 and 71.2108

Q: And the “Relative mRNA level CXCL10 (Fig. S7d)” value ([3]; XQ2B 10 μM)?
A: 34.1653 and 30.6356 and 36.3338

Q: What about the “Relative mRNA level IFNB1 (Fig. S7d)” value ([3]; XQ2B 10 μM) of the same compound?
A: 33.5888 and 35.227 and 34.4163

Q: What about the “Relative mRNA level IL6 (Fig. S7d)” value ([3]; XQ2B 10 μM) of the same compound?
A: 0.9806 and 0.7505 and 1.24

Q: And the “Relative mRNA level CXCL10 (Fig. S7d)” value ([3]; XQ2B 20 μM)?
A: 10.6053 and 10.5964 and 12.3293

Q: What about the “Relative mRNA level IFNB1 (Fig. S7d)” value ([3]; XQ2B 20 μM) of the same compound?
A: 3.764 and 4.346 and 4.187

Q: What about the “IFNB1 mRNA level (Fig. S7c)” value ([3]; ISD) of the same compound?
A: 15.0362 and 16.705 and 17.0928

Q: What about the “IFNB1 mRNA level (Fig. S7c)” value ([3]; Mock) of the same compound?
A: 1.262 and 0.9081 and 0.8724

Q: What about the “dsDNA/ISD-induced IFNB1, CXCL10, IL6 expression” value ([3]; THP1) of the same compound?
A: comparable cGAS inhibitory effect as that of XQ2
